Experimental data as given in publication PMC11988775, “Glycyl-tRNA Synthetase as a Target for Antiviral Drug Screening Against Influenza Virus” (International Journal of Molecular Sciences, 2025).
Read-outs that look alike come from different tables or passages of the source.

Assays:
GlyRS [1] = target: T1, GlyRS (Homo sapiens, UniProt P41250); experiment: Fluorescence-based thermal shift assay (TSA); format: binding; settings: shift between Tm of GlyRS with and without compound
T1 construct: made in house; host or cells: E. coli BL21(DE3)
T1 sequence (P41250 37-739): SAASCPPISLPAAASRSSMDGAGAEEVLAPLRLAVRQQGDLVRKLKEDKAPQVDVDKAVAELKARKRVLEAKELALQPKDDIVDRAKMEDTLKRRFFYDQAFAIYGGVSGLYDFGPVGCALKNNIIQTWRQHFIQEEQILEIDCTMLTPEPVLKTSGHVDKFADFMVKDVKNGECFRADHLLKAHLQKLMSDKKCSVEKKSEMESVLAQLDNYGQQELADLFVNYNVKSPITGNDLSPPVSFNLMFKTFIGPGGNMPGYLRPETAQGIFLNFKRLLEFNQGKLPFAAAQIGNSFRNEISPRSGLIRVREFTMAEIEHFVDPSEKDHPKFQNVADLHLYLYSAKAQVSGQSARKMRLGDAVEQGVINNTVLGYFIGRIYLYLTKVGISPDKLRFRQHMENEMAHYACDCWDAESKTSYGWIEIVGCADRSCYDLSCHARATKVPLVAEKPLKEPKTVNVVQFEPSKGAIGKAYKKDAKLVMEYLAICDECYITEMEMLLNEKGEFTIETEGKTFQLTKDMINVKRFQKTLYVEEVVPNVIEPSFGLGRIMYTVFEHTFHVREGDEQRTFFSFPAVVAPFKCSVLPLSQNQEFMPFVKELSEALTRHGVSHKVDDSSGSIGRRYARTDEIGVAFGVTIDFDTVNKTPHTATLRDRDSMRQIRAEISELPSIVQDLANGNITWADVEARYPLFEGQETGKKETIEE
Protocol: Thermal shift assays were conducted using a StepOnePlus 7 Flex Real-Time Cycler (Applied Biosystems, Waltham, MA, USA). The Protein Thermal Shift™ Kit dye from Thermo Fisher Scientific was employed to monitor the thermal stability of the protein by binding to its exposed hydrophobic regions. In each well of a 96-well Optical Reaction Plate (Applied Biosystems), a solution containing 14 μL of protein thermal shift buffer, 2 μL of diluted thermal shift dye (8×), 2 μL small molecule solution at 1 mM, and 2 μL of protein at 1 mg/mL was added. The 96-well polymerase chain reaction plates were then placed in the Life Technologies system and incubated at 25 °C for 10 min. Subsequently, the samples were gradually heated from 25 °C to 95 °C at a rate of 1 °C/min. During the thermal denaturation of the protein, the fluorescence signal of SYPRO orange at 490/530 nm excitation/emission wavelengths was recorded by the instrument at 30 s intervals. The fluorescence signal was continuously monitored and plotted against the temperature, with the midpoint of the protein unfolding transition defined as the melting temperature (Tm). To ensure accuracy, triplicate experiments were performed. The ΔTm represents the shift in Tm value between the GlyRS treated with compounds and the blank control.

GlyRS [2] = target: T1, GlyRS; experiment: Bio-layer interferometry (BLI) binding assay; settings: for Kdis / Kon: immobilized GlyRS
Protocol: Binding experiments on the GlyRS proteins with various molecules were conducted using an Octet R8 system (ForteBio, Fremont, CA, USA). Purified His-tagged GlyRS proteins (500 μg/mL) were captured using Ni-NTA biosensors (ForteBio, Fremont, CA, USA), resulting in a saturation response of 4–5 nm after 300 s. Subsequently, the biosensors were immersed in diluted molecules (0.625–20 μM in assay buffer) for 120 s to measure the association signal, followed by transfer into Octet buffer to measure the dissociation signal for 100 s. Reference wells containing buffer instead of the tested compounds were included to correct for baseline shifts. A parallel set of Ni-NTA sensors immersed only in buffer served as negative reference controls to correct for nonspecific binding of the compounds to the biosensor surface. The signals were analyzed by a double reference subtraction protocol to deduce nonspecific and background signals and signal drifts caused by biosensor variability. All assays were performed by a standard protocol in 96-well black plates with a total volume of 200 μL/well at 30 °C. The generated data were analyzed using the Octet® Analysis Studio 12.2.2.26 for correction and curve fitting.

GlyRS [3] = target: T1, GlyRS; experiment: Limited proteolysis analysis (trypsin, SDS-PAGE); settings: trypsin at different concentrations, 1 h at 37 °C, versus unbound GlyRS
[4] = system: A/PuertoRico/8/34 (H1N1) (PR8 virus); format: cell-based, Influenza A virus
in vitro = format: cell-based; settings: human
Protocol: We then evaluated the antiviral effects of Lycobetaine and Scutellarein. To determine the optimal concentration of the small molecules, we used the CCK-8 assay to evaluate cell viability and estimate the CC50 value of the two drugs in A549 cells. In this experiment, the cells were exposed to varying concentrations of Lycobetaine and Scutellarein, and the CCK-8 reagent was added 24 h after drug treatment.

GlyRS [5] = target: T1, GlyRS; experiment: Enzyme inhibition assay (ATP consumption assay); format: biochemical; settings: for IC50: ATP consumption assay, mean ± SD
Protocol: The ATP consumption assay was utilized to assess the enzymatic inhibitory activity of the compounds. The 30 μL reaction mixture consisted of 1 μM GlyRS, 25 μM ATP, 50 μM L-Glycine, 30 mM HEPES pH 7.5, 150 mM NaCl, 30 mM KCl, 40 mM MgCl2, and 0.1% bovine serum albumin (BSA), along with the corresponding concentrations of each compound. The reaction mixture was incubated at room temperature for 15 min. After incubation, 10 μL of the reaction reagent was transferred to a 384-well microplate, and the GlyRS enzyme activity was detected by adding 10 μL of the ATP Assay Kit (#S0026, Beyotime, Shanghai, China). Luminescence measurements were performed using a Synergy HTX multimode microplate Reader (BioTek Inc., Winooski, VT, USA). […]

[6] = BLI, immobilized His-tagged GlyRS, mean ± SD, three repeats, read-out: KD
[7] = 1 μM GlyRS at 20 μM compounds, average of two independent experiments

Oc1cc2c3c(c1)c1cc4c(cc1c[n+]3CC2)OCO4 [Lycobetaine]
△Tm (GlyRS [1]): −13.01 °C
Kdis (GlyRS [2]; BLI): 39.73 ± 11.18 (1/s) × 10^−2
Kd (GlyRS [2]; [6]): 43.5 ± 16.4 µM
protein conformation change of GlyRS (distribution of proteolyzed fragments) (GlyRS [3]): alters the protein conformation of GlyRS
viral infection rate / viral titer [4]: effectively reduced the viral infection rate
CC50 at 24 h (in vitro): 16 ± 0.58 µM
Relative Enzyme Activity (GlyRS [5]; [7]): 8.0%
IC50 (GlyRS [5]): 0.11 ± 0.05 µM

COC(=O)C1=C(C)NC(C)=C(C(=O)OCC(C)C)C1c1ccccc1[N+](=O)[O-] (centres unmarked) [Nisoldipine, reference compound]
△Tm (GlyRS [1]): −8.96 °C
Kdis (GlyRS [2]; BLI): 400 ± 94.49 (1/s) × 10^−2
Kon (GlyRS [2]; BLI): 86.16 ± 27.50 (1/MS) × 10^3
Kd (GlyRS [2]; [6]): 47.7 ± 7.18 µM
Relative Enzyme Activity (GlyRS [5]; [7]): 67.3%

COC[C@H]1C[C@@H](c2nc(-c3ccc4c(c3)COc3cc5c(ccc6nc([C@@H]7CC[C@H](C)N7C(=O)[C@@H](NC(=O)OC)C(C)C)[nH]c65)cc3-4)c[nH]2)N(C(=O)[C@H](NC(=O)OC)c2ccccc2)C1 [Velpatasvir, reference compound]
△Tm (GlyRS [1]): −5.4 °C
Kdis (GlyRS [2]; BLI): 18.46 ± 0.98 (1/s) × 10^−2
Kon (GlyRS [2]; BLI): 15.80 ± 0.71 (1/MS) × 10^3
Kd (GlyRS [2]; [6]): 11.7 ± 1.13 µM
Relative Enzyme Activity (GlyRS [5]; [7]): 78.5%

Cc1ccc(S(=O)(=O)NCl)cc1 [Chloramine-T]
△Tm (GlyRS [1]): −5.13 °C
Kd (GlyRS [2]): 15.1 ± 1.8 µM
Kdis (GlyRS [2]; BLI): 78.19 ± 17.95 (1/s) × 10^−2
Kon (GlyRS [2]; BLI): 52.28 ± 13.31 (1/MS) × 10^3
Relative Enzyme Activity (GlyRS [5]; [7]): 86.9%

Cc1c(OCC(F)(F)F)ccnc1C[S+]([O-])c1nc2ccccc2[nH]1 (centres unmarked) [Lansoprazole, reference compound]
△Tm (GlyRS [1]): −5.03 °C
Kdis (GlyRS [2]; BLI): 9.25 ± 3.64 (1/s) × 10^−2
Kon (GlyRS [2]; BLI): 7.23 ± 2.14 (1/MS) × 10^3
Kd (GlyRS [2]; [6]): 12.5 ± 1.63 µM
Relative Enzyme Activity (GlyRS [5]; [7]): 72.3%

Oc1c(I)cc(I)c2cccnc12 [Iodoquinol, reference compound]
△Tm (GlyRS [1]): −11.97 °C
Kdis (GlyRS [2]; BLI): 2.23 ± 0.49 (1/s) × 10^−2
Kon (GlyRS [2]; BLI): 3.10 ± 0.51 (1/MS) × 10^3
Kd (GlyRS [2]; [6]): 7.14 ± 0.41 µM
Relative Enzyme Activity (GlyRS [5]; Figure 5K, bars A-J correspond to the compounds of panels A-J): 72.0%

C[C@@H]1C[C@H]2[C@@H]3CCC4=CC(=O)C=C[C@]4(C)[C@@]3(Cl)[C@@H](O)C[C@]2(C)[C@@]1(OC(=O)c1ccco1)C(=O)CCl [Mometasone furoate, reference compound]
△Tm (GlyRS [1]): −11.58 °C
Kon (GlyRS [2]; BLI): 108.8 ± 67.42 (1/MS) × 10^3
Kd (GlyRS [2]; [6]): 1.82 ± 0.36 µM
Relative Enzyme Activity (GlyRS [5]; [7]): 91.2%

CC(C)c1cc2c(c(O)c1O)[C@@]1(C(=O)O)CCCC(C)(C)[C@@H]1CC2 [Carnosic acid]
△Tm (GlyRS [1]): −5.9 °C
Kd (GlyRS [2]): 14.5 ± 0.19 µM
Kdis (GlyRS [2]; BLI): 1.12 ± 0.17 (1/s) × 10^−2
Kon (GlyRS [2]; BLI): 1.13 ± 0.26 (1/MS) × 10^3
Relative Enzyme Activity (GlyRS [5]; [7]): 75.4%

O=c1cc(-c2ccc(O)cc2)oc2cc(O)c(O)c(O)c12 [Scutellarein]
△Tm (GlyRS [1]): −5.3 °C
Kdis (GlyRS [2]; BLI): 1.09 ± 0.11 (1/s) × 10^−2
Kon (GlyRS [2]; BLI): 3.96 ± 1.05 (1/MS) × 10^3
Kd (GlyRS [2]; BLI, mean ± SD, three repeats (Table 2), read-out: KD): 2.88 ± 0.83 µM
protein conformation change of GlyRS (distribution of proteolyzed fragments) (GlyRS [3]): did not show significant differences compared to unbounded GlyRS
viral infection rate / viral titer [4]: effectively reduced the viral infection rate
CC50 at 24 h (in vitro): 29.4 ± 0.76 µM
Relative Enzyme Activity (GlyRS [5]; [7]): 27.3%
IC50 (GlyRS [5]): 2.22 ± 0.19 µM

CC(=O)N[C@@H](C)C(=O)O [N-Acetyl-L-alanine]
△Tm (GlyRS [1]): 5.96 °C
Kdis (GlyRS [2]; BLI): 560 ± 194 (1/s) × 10^−2
Kon (GlyRS [2]; BLI): 396.20 ± 85.48 (1/MS) × 10^3
Kd (GlyRS [2]; [6]): 24.9 ± 4.33 µM
Relative Enzyme Activity (GlyRS [5]; [7]): 88.1%
